Experimental data taken from patent US8501713B2, “Drug combinations for the treatment of duchenne muscular dystrophy” (Summit Corporation PLC, priority 2007, dated 2013).

Test system: Utrophin A promoter linked to a luciferase reporter gene
Test: Luciferase reporter assay (murine H2K cells)
Assay type: cell-based
Details: for Activity: luciferase reporter assay in murine H2K cells, classified relative to control; for activity at 10 µM: Mus musculus, H2K mdx, luciferase level relative to control, H2K/mdx/Utro A reporter cells, compound 10 μM final concentration, read-out: Activity
Procedure: 1. Luciferase Reporter Assay (Murine H2K Cells)
The cell line used for the screen is an immortalized mdx mouse H2K cell line that has been stably transfected with a plasmid containing […] fragment of the Utrophin A promoter including the first untranslated exon linked to a luciferase reporter gene. Under conditions of low temperature and interferon containing media, the cells remain as myoblasts. These are plated into 96 well plates and cultured in the presence of compound for three days. The level of luciferase is then determined by cell lysis and reading of the light output from the expressed luciferase gene utilising a plate luminometer.
H2K/mdx/Utro A reporter Cell Line Maintenance
The cells were grown at 33° C. in the presence of 10% CO2. To remove the myoblasts for platting, they were incubated with Trypsin EDTA until the monolayer started to detach.
The plates were then incubated at 33° C. in the presence of 10% CO2 for 24 hrs. Compounds were dosed by adding 10 μl of diluted compound to each well giving a final concentration of 10 μM. The plates were then incubated for a further 48 hrs. Cells were then lysed in situ following the manufacture's protocols (Promega Steady-Glo Luciferase Assay System (E2520). Then counted for 10 seconds using a plate luminometer (Victor1420).
Compounds for screening were stored at −20° C. as 10 mM stocks in 100% DMSO until required.
Biological activity as assessed using the luciferase reporter assay in murine H2K cells, and is classified as follows: […]

| Compound | Activity | activity at 10 µM [%] |
| --- | --- | --- |
| Nc1ccc(-c2nc3ccccc3s2)cc1 [Example 601] | +++ (Between 301% and 400% relative to control) | – |
| O=C(Nc1ccc2oc(-c3ccc(Cl)cc3)nc2c1)c1ccco1 [Example 102, N-(2-(4-chlorophenyl)benzo[d]oxazol-5-yl)furan-2-carboxamide] | – | < 200 |
| CN(C)c1ccc(-c2nc3cc(N)ccc3o2)cc1 [Example 491] | ++ (Between 201% and 300% relative to control) | – |
| CN(C)c1ccc(C(=O)Nc2ccc3oc(-c4cccnc4)nc3c2)cc1 [Example 44, 4-(dimethylamino)-N-(2-(pyridin-3-yl)benzo[d]oxazol-5-yl)benzamide] | – | < 200 |
| Nc1ccc2oc(-c3ccc(C(F)(F)F)cc3)nc2c1 [Example 15, 2-(4-(trifluoromethyl)phenyl)benzo[d]oxazol-5-amine] | – | < 200 |
| COc1ccccc1C(=O)Nc1ccc2oc(-c3ccc(Cl)cc3)nc2c1 [Example 92, N-(2-(4-chlorophenyl)benzo[d]oxazol-5-yl)-2-methoxybenzamide] | – | < 200 |
| CCCC(=O)Nc1ccc2oc(-c3cccc(F)c3)nc2c1 [Example 244, N-(2-(3-fluorophenyl)benzo[d]oxazol-5-yl)butyramide] | – | > 401 |
| CCCC(=O)Nc1ccc2oc(-c3cccc(C(F)(F)F)c3)nc2c1 [Example 225, N-(2-(3-(trifluoromethyl)phenyl)benzo[d]oxazol-5-yl)butyramide] | – | < 200 |
| Cc1ccc(-c2nc3cc(C(C)(C)C)ccc3o2)cc1 [Example 172, 5-tert-butyl-2-p-tolylbenzo[d]oxazole] | – | > 401 |
| Clc1ccc(-c2nc3cc(Br)ccc3o2)cc1 [Example 288, 5-bromo-2-(4-chlorophenyl)benzo[d]oxazole] | – | > 401 |
| CCS(=O)(=O)c1ccc2oc(-c3ccc(Cl)cc3)nc2c1 [Example 180, 2-(4-chlorophenyl)-5-(ethylsulfonyl)benzo[d]oxazole] | – | > 401 |
| CCC(=O)Nc1ccc2oc(-c3ccc(OC)cc3)nc2c1 [Example 136, N-(2-(4-methoxyphenyl)benzo[d]oxazol-5-yl)propionamide] | – | 301 to 400 |
| CCCS(=O)(=O)c1ccc2oc(-c3ccc(Cl)cc3)nc2c1 [Example 578] | + (Up to 200% relative to control) | – |
| O=[N+]([O-])c1ccc(Cl)c(-c2nc3ccccc3s2)c1 [Example 524] | + (Up to 200% relative to control) | – |
| Cc1ccccc1-c1nc2cc(NC(=O)C(C)C)ccc2o1 [Example 226, N-(2-o-tolylbenzo[d]oxazol-5-yl)isobutyramide] | – | > 401 |
| CC(C)C(=O)Nc1ccc2nc(-c3cccc(Cl)c3Cl)oc2c1 [Example 354, N-(2-(2,3-dichlorophenyl)benzo[d]oxazol-6-yl)isobutyramide] | – | 301 to 400 |
| O=[N+]([O-])c1ccc2[nH]c(-c3ccco3)nc2c1 [Example 508] | + (Up to 200% relative to control) | – |
| Cc1cc(C)cc(-c2nc3cc(N)ccc3o2)c1 [Example 482] | + (Up to 200% relative to control) | – |
| OCc1cn(-c2ccccc2)nc1-c1cc2ccccc2o1 [Example 674] | ++ (Between 201% and 300% relative to control) | – |
| c1ccc(-c2ccc3oc(-c4ccccc4)nc3c2)cc1 [Example 85, 2,5-diphenylbenzo[d]oxazole] | – | 301 to 400 |
| CCS(=O)(=O)c1ccc2oc(-c3cnc4ccccc4c3)nc2c1 [Example 423, 5-(ethylsulfonyl)-2-(quinolin-3-yl)benzo[d]oxazole] | – | > 401 |
| CC(C)(C)C(=O)Nc1ccc2oc(-c3ccc(Cl)cc3)nc2c1 [Example 210, N-(2-(4-chlorophenyl)benzo[d]oxazol-5-yl)pivalamide] | – | 201 to 300 |
| Nc1ccc2oc(-c3ccc(OC(F)(F)F)cc3)nc2c1 [Example 350, 2-(4-(trifluoromethoxy)phenyl)benzo[d]oxazol-5-amine] | – | 201 to 300 |
| CCCC(=O)Nc1cccc2oc(-c3ccc(C)cc3)nc12 [Example 235, N-(2-p-tolylbenzo[d]oxazol-4-yl)butyramide] | – | < 200 |
| Cc1ccc(-c2nc3cc(N)ccc3o2)c(Cl)c1 [Example 527] | ++ (Between 201% and 300% relative to control) | – |
| Cc1ccc2nc(-c3ccc(NC(=O)c4ccccc4C(=O)O)cc3)sc2c1 [Example 545] | + (Up to 200% relative to control) | – |
| CN(C)c1ccc(-c2nc3ccccc3o2)cc1 [Example 486] | + (Up to 200% relative to control) | – |

| Compound | Activity | activity at 10 µM [%] |
| --- | --- | --- |
| CC(C)C(=O)Nc1ccc2nc(-c3ccc(Cl)cc3)oc2c1 [Example 255, N-(2-(4-chlorophenyl)benzo[d]oxazol-6-yl)isobutyramide] | – | > 401 |
| COc1ccc(OCc2nc3ccccc3[nH]2)cc1 [Example 4, 2-((4-methoxyphenoxy)methyl)-1H-benzo[d]imidazole] | – | 201 to 300 |
| CC(C)C(=O)Nc1ccc2oc(-c3cccc(F)c3)nc2c1 [Example 245, N-(2-(3-fluorophenyl)benzo[d]oxazol-5-yl)isobutyramide] | – | 301 to 400 |
| Nc1ccc(-c2nc3cc(Cl)ccc3o2)cc1 [Example 289, 4-(5-chlorobenzo[d]oxazol-2-yl)aniline] | – | > 401 |
| CN(C)c1ccc(-c2nc3ccccc3[nH]2)cc1 [Example 498] | + (Up to 200% relative to control) | – |
| CN(C)c1cccc(-c2nc3cc(N)ccc3o2)c1 [Example 197, 2-(3-(dimethylamino)phenyl)benzo[d]oxazol-5-amine] | – | < 200 |
| COc1ccc(C(=O)Nc2ccc3oc(-c4ccc(Cl)cc4)nc3c2)cc1 [Example 91, N-(2-(4-chlorophenyl)benzo[d]oxazol-5-yl)-4-methoxybenzamide] | – | < 200 |
| Cc1ccnc(Nc2nc3ccccc3o2)n1 [Example 682] | ++ (Between 201% and 300% relative to control) | – |
| O=C(Nc1ccc2oc(-c3ccc(Cl)cc3)nc2c1)c1ccc(Cl)cc1 [Example 89, 4-chloro-N-(2-(4-chlorophenyl)benzo[d]oxazol-5-yl)benzamide] | – | < 200 |
| CC(C)C(=O)Nc1ccc2sc(-c3cccc(Cl)c3Cl)nc2c1 [Example 303, N-(2-(2,3-dichlorophenyl)benzo[d]thiazol-5-yl)isobutyramide] | – | 301 to 400 |
| CCCS(=O)(=O)Nc1ccc2oc(-c3ccc(Cl)cc3)nc2c1 [Example 260, N-(2-(4-chlorophenyl)benzo[d]oxazol-5-yl)propane-1-sulfonamide] | – | < 200 |
| CC(C)C(=O)Nc1ccc2sc(-c3ccc(Cl)cc3)nc2c1 [Example 277, N-(2-(4-chlorophenyl)benzo[d]thiazol-5-yl)isobutyramide] | – | 301 to 400 |
| O=C(CCN1CCOCC1)Nc1ccc2oc(-c3ccccc3)nc2c1 [Example 285, 3-morpholino-N-(2-phenylbenzo[d]oxazol-5-yl)propanamide] | – | < 200 |
| COc1ccc(-c2nc3ccccc3[nH]2)cc1 [Example 470] | ++ (Between 201% and 300% relative to control) | – |
| Nc1ccc2oc(-c3ccc(O)cc3)nc2c1 [Example 496] | ++ (Between 201% and 300% relative to control) | – |
| CC(C)(C)OC(=O)NCCC(=O)Nc1ccc2oc(-c3ccccc3)nc2c1 [Example 246, tert-butyl 3-oxo-3-(2-phenylbenzo[d]oxazol-5-ylamino)propylcarbamate] | – | < 200 |
| CCOc1ccc(-c2nc3cc(N)ccc3o2)cc1 [Example 549] | + (Up to 200% relative to control) | – |
| CC(C)C(=O)Nc1ccc2oc(C(C)c3ccccc3)nc2c1 (stereo not drawn) [Example 309, N-(2-(1-phenylethyl)benzo[d]oxazol-5-yl)isobutyramide] | – | < 200 |
| Nc1ccc(Oc2ccc(-c3nc4ccccc4[nH]3)cc2)cc1 [Example 557] | ++++ (Above 401% relative to control) | – |
| CC(C)C(=O)Nc1ccc2oc(-c3cccc(C(F)(F)F)c3)nc2c1 [Example 203, N-(2-(3-(trifluoromethyl)phenyl)benzo[d]oxazol-5-yl)isobutyramide] | – | < 200 |
| O=C(Nc1ccccc1)Nc1ccc2oc(-c3ccccc3)nc2c1 [Example 240, 1-phenyl-3-(2-phenylbenzo[d]oxazol-5-yl)urea] | – | 301 to 400 |
| O=[N+]([O-])c1ccc2nc(-c3ccc(Cl)cc3)[nH]c2c1 [Example 164, 2-(4-chlorophenyl)-6-nitro-1H-benzo[d]imidazole] | – | 201 to 300 |
| O=C(Nc1ccc2oc(-c3cccnc3)nc2c1)c1ccc(C(F)(F)F)cc1 [Example 46, N-(2-(pyridin-3-yl)benzo[d]oxazol-5-yl)-4-(trifluoromethyl)benzamide] | – | < 200 |
| CCOc1ccc(NCc2nc3ccccc3n2C)cc1 [Example 676] | ++ (Between 201% and 300% relative to control) | – |
| CCCC(=O)Nc1ccc2oc(-c3cccc(C)c3)nc2c1 [Example 200, N-(2-m-tolylbenzo[d]oxazol-5-yl)butyramide] | – | > 401 |
| COc1ccc(OCc2nc3ccccc3[nH]2)cc1 [Example 473] | ++ (Between 201% and 300% relative to control) | – |
| Cc1ccccc1-c1nc2cc(N)ccc2o1 [Example 205, 2-o-tolylbenzo[d]oxazol-5-amine] | – | 301 to 400 |
